Source: patent publication US11226337B2, “Chemoproteomic profiling of protein electrophilic and oxidative post-translational modifications” (Zenagem, LLC, priority 2017, dated 2022)

Target: T1, CYCS Cytochrome c (P99999) (Homo sapiens, UniProt P99999)
T1 construct: In Situ Labelling of Cells with Hydrazine Probes for MS Experiments; endogenous in cells; host or cells: HEK293T and/or MDA-MB-231
Experiment: SILAC RP-ABPP
Format: cell-based
Settings: SILAC H/L, HEK293T
Method in brief: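 Heavy SILAC HEK293T or MDA-MB-231 cells were treated with a clickable hydrazine probe; light cells received the non-clickable analogue (enrichment) or the probe plus 10-fold excess non-clickable competitor (competition). Mixed proteomes underwent CuAAC with 100 μM biotin-azide for 1 h. Heavy:light ratios were taken as median peptide ratios (≥3 peptides) averaged over ≥3 replicates.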

T1 sequence (P99999 whole entry): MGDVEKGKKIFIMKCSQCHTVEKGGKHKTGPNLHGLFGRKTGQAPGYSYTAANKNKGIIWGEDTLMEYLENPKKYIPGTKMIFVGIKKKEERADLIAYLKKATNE

enrichment ratioavg (probe 2 1 mM 0.5 h vs probe 4): 7
competition ratioavg (probe 2 vs probe 2+10x probe 4): 0
SMILES: C#CCCNC(=O)c1ccc(NN)cc1.Cl [probe 2, N-(but-3-yn-1-yl)-4-hydrazinylbenzamide hydrochloride]
